Laboratory results as given in patent publication EP0120757A1, “Compositions in the form of microglobules consisting of partially quaternised, tertiary polyamines, and containing hydrophobic compounds, their preparation and application” (Etablissement Public dit: CENTRE NATIONAL DE LA RECHERCHE …, priority 1983, dated 1984).
Values after ≈ are worked out from the molar mass of the structure shown.

Legend:
[1] = Solubility of the hydrophobic drug in water without polymer
[2] = Solubilisation of griseofulvine in aqueous Q-P(TDAE)19 microglobule solution, assayed by circular dichroism at 294 nm after filtration; format: physicochemical; settings: Example 5, Q-P(TDAE)19 TN = 2,5 x 10^-2 N, per ml of filtrate
Experimental: Les essais sont effectués à partir d'une solution basique de Q-P(TDAE)19 (TN= 2,5 x 10^-2 N). Des échantillons contenant 5ml de cette solution basique sont ajustés aux pH correspondant aux différents β par addition de HC1 0,5N).
7mg de griseofulvine en poudre sont ajoutés à chaque échantillon. On laisse soniquer pendant 5 minutes et on filtre les mélanges sur filtre millipore (0,45 micromètre). Les filtrats limpides sont conservés de la même façon que pour les exemples 1 et 2. Le dosage de la griseofulvine solubilisée est effectué dans le milieu solvant eau-acétonitrile : 20/80, V/V. On prélève dans chaque essai, 1ml de filtrat qui est dilué à 5ml par de l'acétonitrile. Les ellipticités des différentes solutions sont mesurées à λ = 294nm et comparées à des solutions standard de griseofulvine dissoutes dans le même milieu solvant.
Le tableau suivant donne les quantités de griseofulvine dissoute (en microgrammes par ml de filtrat) en fonction du pH et du degré de protonation β . La solubilité de la griseofulvine dans l'eau est de l'ordre de 13 à 15 microgrammes par ml.

[3] = Solubilisation of progestérone in aqueous Q-P(TDAE)19 microglobule solution, assayed by circular dichroism at 285 nm after filtration; format: physicochemical; settings: for progestérone (microgrammes/ml): per ml of filtrate; for quantité de progestérone dissoute: Example 3, Q-P(TDAE)19 TN = 0,125 N, pH = 7,7, β = 0,06
Experimental: A) Les essais sont effectués à partir d'une solution basique de poly(diéthylaminométhyl thiiranne) quaternisée à 19% Q-P(TDAE)19 de formule [drawing 4] X étant un anion (par exemple un anion halogénure tel que chlorure ou bromure), à une concentration TN = (2,5+ 0,1)x 10^-2 N (polymère = 3,77mg de polymère sous forme basique par ml de solution).
Cette solution est obtenue de la façon suivante: • 270mg de chlorhydrate de Q-P(TDAE)19 sont dissous dans 10ml d'eau distillée, puis passés sur une résine échangeuse d'anions (BIO-RAD AG 1-x4-20-50 mesh-) sous forme OH et récupérés dans une fiole jaugée de 50ml.
Des échantillons contenant 5m1 de cette solution basique sont ajustés, par addition de HC1 0,5N, aux pH correspondant à différentes valeurs du degré de protonation apparent de la fonction amine tertiaire résiduelle dans le domaine 0 < β< 1. On ajoute 5mg de progestérone en poudre à chaque échantillon et les mélanges sont soit soniqués pendant 5 minutes soit agités pendant 48 heures.
Après dissolution, chaque échantillon est filtré sur filtre millipore (0,45 micromètres). Les filtrats sont clairs et limpides. Le système "véhicule-drogue" peut être conservé de deux façons différentes: • - en solution, pendant quelques mois au réfrigérateur • - sous forme solide, en lyophilisant les filtrats et en les conservant sous vide. Le filtrat lyophilisé se solubilise rapidement en solution aqueuse.
Le dosage de la progestérone solubilisée ne peut être fait que par extraction de cette dernière des microémulsions. Cette extraction est obtenue par éclatement des véhicules globulaires dans un mélange filtrat-éthanol absolu dans le rapport V/V : 20/80. 1ml de chaque filtrat est dilué à 5ml par addition d'éthanol. Les différents filtrats présentent dans la région 350-250nm des bandes dichrolques caractéristiques de la progestérone. Le signal de dichroisme circulaire à λ = 285nm est utilisable pour évaluer la quantité de progestérone présente dans chaque filtrat par comparaison avec les ellipticités de solutions standard de progestérone dissoute dans le même milieu solvant.
Le tableau suivant donne les quantités de progestérone solubilisée (en microgramme par ml de filtrat) en fonction du pH et du degré de protonation β pour chaque essai.
On opère comme à l'exemple 1 mais les essais sont effectués à partir d'une concentration TN = 0,15N de Q-P(TDAE)19 sous forme basique. Des échantillons contenant 2ml de cette solution sont ajustés à différents β par addition de HC1 N et additionnés de 5mg de progestérone. Après sonication pendant 5 minutes, les mélanges sont filtrés sur filtre millipore (0,45 micromètre). Le dosage de la progestérone solubilisée est fait comme précédemment. 0,2ml de chaque filtrat sont dilués à 2ml par de l'éthanol absolu. Les ellipticités sont mesurées â λ = 285nm et comparées aux solutions standard de progestérone effectuées dans les mêmes conditions.
Le tableau suivant donne les quantités de progestérone solubilisée (en microgrammes par ml de filtrat) en fonction du pH et du degré de protonation S.
Deux essais sont réalisés dans les mêmes conditions: concentration en polymère, β et pH identiques mais on ajoute au deuxième essai, du chlorure de sodium de telle façon que la solution soit à 0,9X en NaCl.
Deux échantillons contenant 2m1 de solution basique de Q-P(TDAE)19 (TN = 0,125 N) sont ajustés à pH = 7,7 et à β= 0,06 par addition de 0,06ml de HCl N. Dans le deuxième échantillon, on ajoute 18mg de NaCl. 5mg de progestérone sont additionnés à chaque échantillon. Les mélanges sont soniqués pendant 5 minutes. Le protocole de filtration et de dosage de la progestérone solubilisée est le même qu'à l'exemple 2.

COC1=CC(=O)C[C@@H](C)[C@]12Oc1c(Cl)c(OC)cc(OC)c1C2=O [griseofulvine]
solubility [1]: 13 to 15 µg/mL (≈ 36.9 to 42.5 µM) | griseofulvine (microgrammes/ml) ([2]; essai 1, pH 7,6, β 0,02): 47 microgrammes/ml | griseofulvine (microgrammes/ml) ([2]; essai 2, pH 7,08, β 0,093): 43 microgrammes/ml | griseofulvine (microgrammes/ml) ([2]; essai 3, pH 7,0, β 0,185): 36 microgrammes/ml | griseofulvine (microgrammes/ml) ([2]; essai 4, pH 6,95, β 0,26): 30 microgrammes/ml | griseofulvine (microgrammes/ml) ([2]; essai 5, pH 6,95, β 0,32): 26 microgrammes/ml | griseofulvine (microgrammes/ml) ([2]; essai 6, pH 6,95, β 0,42): 22 microgrammes/ml | griseofulvine (microgrammes/ml) ([2]; essai 7, pH 6,83, β 0,51): 18 microgrammes/ml | griseofulvine (microgrammes/ml) ([2]; essai 8, pH 6,67, β 0,673): 15 microgrammes/ml | griseofulvine (microgrammes/ml) ([2]; essai 9, pH 6,20, β 0,89): 15 microgrammes/ml | griseofulvine (microgrammes/ml) ([2]; essai 10, pH 4,5 à 4,6, β 1): 15 microgrammes/ml

progestérone
solubilité dans l'eau ([1]; no polymer, approximate values, no source stated): 11 à 12 microgrammes par ml | progestérone (microgrammes/ml) ([3]; Example 1, Q-P(TDAE)19 TN = 2,5 x 10^-2 N, essai 1, pH 7,5, β 0,07): 75 microgrammes/ml | progestérone (microgrammes/ml) ([3]; Example 1, Q-P(TDAE)19 TN = 2,5 x 10^-2 N, essai 2, pH 6,97, β 0,135): 62-64 microgrammes/ml | progestérone (microgrammes/ml) ([3]; Example 1, Q-P(TDAE)19 TN = 2,5 x 10^-2 N, essai 3, pH 6,95, β 0,20): 48-50 microgrammes/ml | progestérone (microgrammes/ml) ([3]; Example 1, Q-P(TDAE)19 TN = 2,5 x 10^-2 N, essai 4, pH 6,95, β 0,26): 38 microgrammes/ml | progestérone (microgrammes/ml) ([3]; Example 1, Q-P(TDAE)19 TN = 2,5 x 10^-2 N, essai 5, pH 6,95, β 0,38): 26 microgrammes/ml | progestérone (microgrammes/ml) ([3]; Example 1, Q-P(TDAE)19 TN = 2,5 x 10^-2 N, essai 6, pH 6,80, β 0,63): 14-16 microgrammes/ml | progestérone (microgrammes/ml) ([3]; Example 1, Q-P(TDAE)19 TN = 2,5 x 10^-2 N, essai 7, pH 6,55, β 0,75): 11-12 microgrammes/ml | progestérone (microgrammes/ml) ([3]; Example 1, Q-P(TDAE)19 TN = 2,5 x 10^-2 N, essai 8, pH 6,15, β 0,88): 11-12 microgrammes/ml | progestérone (microgrammes/ml) ([3]; Example 2, Q-P(TDAE)19 TN = 0,15N, essai 1, pH 7,50, β 0,13): 315 microgrammes/ml | progestérone (microgrammes/ml) ([3]; Example 2, Q-P(TDAE)19 TN = 0,15N, essai 2, pH 7,50, β 0,17): 300 microgrammes/ml | progestérone (microgrammes/ml) ([3]; Example 2, Q-P(TDAE)19 TN = 0,15N, essai 3, pH 7,50, β 0,26): 225 microgrammes/ml | progestérone (microgrammes/ml) ([3]; Example 2, Q-P(TDAE)19 TN = 0,15N, essai 4, pH 7,40, β 0,47): 185-190 microgrammes/ml | progestérone (microgrammes/ml) ([3]; Example 2, Q-P(TDAE)19 TN = 0,15N, essai 5, pH 7,36, β 0,51): 80 microgrammes/ml | progestérone (microgrammes/ml) ([3]; Example 2, Q-P(TDAE)19 TN = 0,15N, essai 6, pH 7,25, β 0,58): 70 microgrammes/ml | progestérone (microgrammes/ml) ([3]; Example 2, Q-P(TDAE)19 TN = 0,15N, essai 7, pH 4,8, β 0,98): 10 à 12 microgrammes/ml | quantité de progestérone dissoute ([3]; with NaCl, solution at 0,9X en NaCl (18mg in 2ml)): 375 microgrammes par ml de filtrat | quantité de progestérone dissoute ([3]; without NaCl): 375 microgrammes par ml de filtrat
